These results are taken from patent US7307097B2, “Chemical compounds” (SmithKline Beechman Corporation, priority 2001, dated 2007).

SMILES strings stand for the structures.

The target of this assay is Recombinant GST-Tie2 (Homo sapiens, UniProt Q02763). Briefly: Tie2 fluorescence polarization kinase activity assay (TIE2-FP). In kind it is biochemical. The settings on record: 200 μM ATP, activated enzyme; read-out: TIE2-FP pIC50 (converted). On the procedure: Tie2 Fluorescence Polarization Kinase Activity Assay (TIE2-FP) Activation of Recombinant Tie2 Activation: Recombinant GST-Tie2 is activated by incubating the enzyme in 20 mM Tris-HCl, pH7.5, 12 mM MgCl2, 100 mM NaCl, 20 μM sodium vanidate, 1 mM DTT and 300 μM ATP at room temperature for 2 hours. The activation mixture is then passed through a NAP-25 desalting column (Pharmacia Biotech cat. no. 17-0852-02) to remove the free ATP. The activated enzyme is stored as aliquots at−80° C. in 20mM Tris-HCl, pH7.5 and 100 mM NaCl. Assay Conditions: The final assay conditions are 50 mM HEPES, pH7.5, 5% DMSO (when screening compounds), 200 μM ATP, 5mM MgCl2, 1 mM DTT, 50 μM sodium vanidate, 1 nM activated enzyme, and 200 μM peptide. IC50's of compounds are measured under subsaturating ATP (200 μM) and varing concentrations of activated Tie2 and peptide substrate (RFWKYEFWR-OH; MW 1873 Da, TFA salt). Panvera Anti-phosphotyrosine antibody (Cat#P2840) and PTK Green Tracer (Cat#P2842) are used to detect the phosphorylated peptide. Polarization is measured on a TECAN Polarion in 138-second cycles for 30 minutes at room temperature. IC50's are then determined from the % polarization using normal calculation methods. The IC50 values are converted to pIC50 values, i.e.,−log IC50 in Molar concentration.
Recombinant GST-Tie2, sequence (Q02763 23-1124): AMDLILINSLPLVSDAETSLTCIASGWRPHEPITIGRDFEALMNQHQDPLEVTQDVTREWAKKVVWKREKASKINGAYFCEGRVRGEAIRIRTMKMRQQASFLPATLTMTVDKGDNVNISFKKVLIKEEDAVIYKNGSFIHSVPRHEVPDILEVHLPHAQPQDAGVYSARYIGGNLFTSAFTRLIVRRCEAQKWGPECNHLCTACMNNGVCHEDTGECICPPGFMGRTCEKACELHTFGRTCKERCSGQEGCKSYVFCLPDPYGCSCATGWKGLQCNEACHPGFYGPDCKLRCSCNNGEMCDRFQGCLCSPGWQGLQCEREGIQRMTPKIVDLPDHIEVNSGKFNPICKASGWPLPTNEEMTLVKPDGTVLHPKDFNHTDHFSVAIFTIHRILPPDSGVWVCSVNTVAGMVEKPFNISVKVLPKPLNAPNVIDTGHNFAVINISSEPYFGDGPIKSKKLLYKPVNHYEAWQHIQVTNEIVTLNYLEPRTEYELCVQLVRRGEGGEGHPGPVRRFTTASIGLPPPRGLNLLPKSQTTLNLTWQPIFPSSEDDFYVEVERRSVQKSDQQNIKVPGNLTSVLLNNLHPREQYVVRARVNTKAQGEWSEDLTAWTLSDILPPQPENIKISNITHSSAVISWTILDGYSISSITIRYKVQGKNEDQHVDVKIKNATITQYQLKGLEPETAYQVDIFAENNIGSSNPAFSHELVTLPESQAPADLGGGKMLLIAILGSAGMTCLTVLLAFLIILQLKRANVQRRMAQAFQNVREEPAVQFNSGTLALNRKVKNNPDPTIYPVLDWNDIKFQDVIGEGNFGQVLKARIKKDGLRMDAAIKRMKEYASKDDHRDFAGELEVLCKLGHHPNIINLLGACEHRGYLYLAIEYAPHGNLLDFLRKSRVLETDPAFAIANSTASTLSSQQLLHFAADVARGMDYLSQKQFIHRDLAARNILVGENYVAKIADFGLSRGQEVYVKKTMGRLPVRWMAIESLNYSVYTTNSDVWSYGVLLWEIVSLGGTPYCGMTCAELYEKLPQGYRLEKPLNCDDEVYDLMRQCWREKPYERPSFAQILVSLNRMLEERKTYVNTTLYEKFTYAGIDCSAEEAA
Background: In fluorescence polarisation assays a small probe gives low polarisation when free and higher when bound to something large.
As to `Cn1nc(-c2ccc(NC(=O)Nc3cc(C(F)(F)F)ccc3F)cc2)c(C(N)=O)c1N` [Example 2, 5-Amino-3-{4-[3-(2-fluoro-5-trifluoromethyl-phenyl)-ureido]-phenyl}-1-methyl-1H-pyrazole-4-carboxylic acid amide], the IC50 was under 100 nM.

Regarding `Cn1nc(-c2ccc(NC(=O)Nc3cc(C(F)(F)F)ccc3Cl)cc2)c(C(N)=O)c1N` [Example 3, 5-Amino-3-{4-[3-(2-chloro-5-trifluoromethyl-phenyl)-ureido]-phenyl}-1-methyl-1H-pyrazole-4-carboxylic acid amide], the IC50 is under 100 nM.

Consider `Cn1nc(-c2ccc(NC(=O)Nc3cc(C(F)(F)F)cc(C(F)(F)F)c3)cc2)c(C(N)=O)c1N` [Example 4, 5-Amino-3-{4-[3-(bis-3,5-trifluoromethyl-phenyl)-ureido]-phenyl}-1-methyl-1H-pyrazole-4-carboxylic acid amide], for which the IC50 was 100 to 1000 nM.

As to `Cn1nc(-c2ccc(NC(=O)Nc3ccc4ccccc4c3)cc2)c(C(N)=O)c1N` [Example 5, 5-Amino-1-methyl-3-[4-(3-naphthalen-2-yl-ureido)-phenyl]-1H-pyrazole-4-carboxylic acid amide], the IC50 is 100 to 1000 nM.

`Cn1nc(-c2ccc(NC(=O)Nc3cccc(Cl)c3)cc2)c(C(N)=O)c1N` [Example 6, 5-Amino-3-{4-[3-(3-chloro-phenyl)-ureido]-phenyl}-1-methyl-1H-pyrazole-4-carboxylic acid amide]: the IC50 is 1000 to 10000 nM.

As to `Cn1nc(-c2ccc(NC(=O)Nc3cc(Cl)ccc3Cl)cc2)c(C(N)=O)c1N` [Example 7, 5-Amino-3-{4-[3-(2,5-dichloro-phenyl)-ureido]-phenyl}-1-methyl-1H-pyrazole-4-carboxylic acid amide], the IC50 was under 100 nM.

Turning to `Cn1nc(-c2ccc(NC(=O)Nc3cccc4ccccc34)cc2)c(C(N)=O)c1N` [Example 8, 5-Amino-1-methyl-3-[4-(3-naphthalen-1-yl-ureido)-phenyl]-1H-pyrazole-4-carboxylic acid amide], the IC50 was 1000 to 10000 nM.

Regarding `Cn1nc(-c2ccc(NC(=O)Nc3cccc(C(F)(F)F)c3)cc2)c(C(N)=O)c1N` [Example 9, 5-Amino-1-methyl-3-{4-[3-(3-trifluoromethyl-phenyl)-ureido]-phenyl}-1H-pyrazole-4-carboxylic acid amide], the IC50 was under 100 nM.

On to `Cn1nc(-c2ccc(NC(=O)Nc3ccc(-c4ccccc4)cc3)cc2)c(C(N)=O)c1N` [Example 10, 5-Amino-3-[4-(3-biphenyl4-yl-ureido)-phenyl]-1-methyl-1H-pyrazole-4-carboxylic acid amide], for which the IC50 was 100 to 1000 nM.

On to `Cn1nc(-c2ccc(NC(=O)Nc3c(F)cccc3F)cc2)c(C(N)=O)c1N` [Example 11, 5-Amino-3-{4-[3-(2,6-difluoro-phenyl)-ureido]-phenyl}-1-methyl-1H-pyrazole-4-carboxylic acid amide], for which the IC50 is over 10000 nM.

For `Cn1nc(-c2ccc(NC(=O)Nc3ccc4c(c3)OCO4)cc2)c(C(N)=O)c1N` [Example 12, 5-Amino-3-[4-(3-benzo[1,3]dioxol-5-yl-ureido)-phenyl]-1-methyl-1H-pyrazole-4-carboxylic acid amide], the IC50 was 1000 to 10000 nM.

For the molecule `Cc1ccccc1NC(=O)Nc1ccc(-c2nn(C)c(N)c2C(N)=O)cc1` [Example 13, 5-Amino-1-methyl-3-[4-(3-o-tolyl-ureido)-phenyl]-1H-pyrazole-4-carboxylic acid amide], the IC50 is 1000 to 10000 nM.

With `Cc1cccc(NC(=O)Nc2ccc(-c3nn(C)c(N)c3C(N)=O)cc2)c1` [Example 14, 5-Amino-1-methyl-3-[4-(3-m-tolyl-ureido)-phenyl]-1H-pyrazole-4-carboxylic acid amide], the IC50 was 100 to 1000 nM.

As for `Cn1nc(-c2ccc(NC(=O)Nc3cc(F)ccc3F)cc2)c(C(N)=O)c1N` [Example 15, 5-Amino-3-{4-[3-(2,5-difluoro-phenyl)-ureido]-phenyl}-1-methyl-1H-pyrazole-4-carboxylic acid amide], the IC50 is 1000 to 10000 nM.

`COc1ccc(NC(=O)Nc2ccc(-c3nn(C)c(N)c3C(N)=O)cc2)c(OC)c1` [Example 16, 5-amino-3-{4-[3-(2,4-dimethoxy-phenyl)-ureido]-phenyl}-1-methyl-1H-pyrazole-4-carboxylic acid amide]: the IC50 was 1000 to 10000 nM.

`Cn1nc(-c2ccc(NC(=O)Nc3ccc(Oc4ccccc4)cc3)cc2)c(C(N)=O)c1N` [Example 17, 5-Amino-1-methyl-3-{4-[3-(4phenoxy-phenyl)-ureido]-phenyl}-1H-pyrazole-4-carboxylic acid amide]: the IC50 was 100 to 1000 nM.

`CC(C)(C)n1nc(-c2ccc(NC(=O)Nc3cc(C(F)(F)F)ccc3Cl)cc2)c(C(N)=O)c1N` [Example 18, 5-Amino-1-tert-butyl-3-{4-[3-(2-chloro-5-trifluoromethyl-phenyl)-ureido]-phenyl}-1H-pyrazole-4-carboxylic acid amide]: the IC50 was under 100 nM.

For `CC(C)(C)n1nc(-c2ccc(NC(=O)Nc3cc(C(F)(F)F)cc(C(F)(F)F)c3)cc2)c(C(N)=O)c1N` [Example 19, 5-Amino-3-{4-[3-(bis-3,5-trifluoromethyl-phenyl)-ureido]-phenyl}-1-tert-butyl-1H-pyrazole-4-carboxylic acid amide], the IC50 is under 100 nM.

In the case of `CC(C)(C)n1nc(-c2ccc(NC(=O)Nc3cccc4ccccc34)cc2)c(C(N)=O)c1N` [Example 20, 5-Amino-1-tert-butyl-3-[4-(3-naphthalen-1-yl-ureido)-phenyl]-1H-pyrazole-4-carboxylic acid amide], the IC50 was 100 to 1000 nM.

`CC(C)(C)n1nc(-c2ccc(NC(=O)Nc3cccc(Cl)c3)cc2)c(C(N)=O)c1N` [Example 21, 5-Amino-1-tert-butyl-3-{4-[3-(3-chloro-phenyl)-ureido]-phenyl}-1H-pyrazole-4-carboxylic acid amide]: the IC50 was under 100 nM.

Regarding `CC(C)(C)n1nc(-c2ccc(NC(=O)Nc3cc(Cl)ccc3Cl)cc2)c(C(N)=O)c1N` [Example 22, 5-Amino-1-tert-butyl-3-{4-[3-(2,5-dichloro-phenyl)-ureido]-phenyl}-1H-pyrazole-4-carboxylic acid amide], the IC50 was 100 to 1000 nM.

Turning to `CC(C)(C)n1nc(-c2ccc(NC(=O)Nc3ccc4ccccc4c3)cc2)c(C(N)=O)c1N` [Example 23, 5-Amino-1-tert-butyl-3-[4-(3-naphthalen-2-yl-ureido)-phenyl]-1H-pyrazole-4-carboxylic acid amide], the IC50 was under 100 nM.

Take `CC(C)(C)n1nc(-c2ccc(NC(=O)Nc3cccc(C(F)(F)F)c3)cc2)c(C(N)=O)c1N` [Example 24, 5-Amino-1-tert-butyl-3-{4-[3-(3-trifluoromethyl-phenyl)-ureido]-phenyl}-1H-pyrazole-4-carboxylic acid amide]: the IC50 was under 100 nM.

As to `CC(C)(C)n1nc(-c2ccc(NC(=O)Nc3ccc(-c4ccccc4)cc3)cc2)c(C(N)=O)c1N` [Example 25, 5-Amino-3-[4-(3-biphenyl-4-yl-ureido)-phenyl]-1-tert-butyl-1H-pyrazole-4-carboxylic acid amide], the IC50 is 100 to 1000 nM.

In the case of `CC(C)(C)n1nc(-c2ccc(NC(=O)Nc3c(F)cccc3F)cc2)c(C(N)=O)c1N` [Example 26, 5-Amino-1-tert-butyl-3-{4-[3-(2,6-difluoro-phenyl)-ureido]-phenyl}-1H-pyrazole-4-carboxylic acid amide], the IC50 is 1000 to 10000 nM.

Turning to `CC(C)(C)n1nc(-c2ccc(NC(=O)Nc3ccc4c(c3)OCO4)cc2)c(C(N)=O)c1N` [Example 27, 5-Amino-3-[4-(3-benzo[1,3]dioxol-5-yl-ureido)-phenyl]-1-tert-butyl-1H-pyrazole-4-carboxylic acid amide], the IC50 is 100 to 1000 nM.

On to `Cc1cccc(NC(=O)Nc2ccc(-c3nn(C(C)(C)C)c(N)c3C(N)=O)cc2)c1` [Example 29, 5-Amino-1-tert-butyl-3-[4-(3-m-tolyl-ureido)-phenyl]-1H-pyrazole-4-carboxylic acid amide], for which the IC50 was under 100 nM.

Take `CC(C)(C)n1nc(-c2ccc(NC(=O)Nc3cc(F)ccc3F)cc2)c(C(N)=O)c1N` [Example 30, 5-Amino-1-tert-butyl-3-{4-[3-(2,5-difluoro-phenyl)-ureido]-phenyl}-1H-pyrazole-4-carboxylic acid amide]: the IC50 is 100 to 1000 nM.

Regarding `COc1ccc(NC(=O)Nc2ccc(-c3nn(C(C)(C)C)c(N)c3C(N)=O)cc2)c(OC)c1` [Example 31, 5-Amino-1-tert-butyl-3-{4-[3-(2,4-dimethoxyo-phenyl)-ureido]-phenyl}-1H-pyrazole-4-carboxylic acid amide], the IC50 was 1000 to 10000 nM.

Turning to `CC(C)(C)n1nc(-c2ccc(NC(=O)Nc3ccc(Oc4ccccc4)cc3)cc2)c(C(N)=O)c1N` [Example 32, 5-Amino-1-tert-butyl-3-{4-[3-(4-phenoxy-phenyl)-ureido]-phenyl}-1H-pyrazole-4-carboxylic acid amide], the IC50 was 100 to 1000 nM.

As to `NC(=O)c1c(-c2ccc(NC(=O)Nc3cc(C(F)(F)F)ccc3F)cc2)n[nH]c1N` [Example 33, 5-Amino-3-{4-[3-2-(fluoro-5-trifluoromethyl-phenyl)-ureido]-phenyl}-1H-pyrazole-4-carboxylic acid amide], the IC50 was under 100 nM.
